Measured values reported in patent publication US8030347B2, “Cylopenta[b]benzofuran derivatives and the utilization thereof” (Bayer HealthCare AG, priority 2004, dated 2011).
pIC50: −log10 of the molar value.

Key:
H460 cells = assay: In vitro proliferation of tumor cells (CellTiter-Glo); type: cell-based; details: NCI-H460; H460 human lung carcinoma cells, 24 h after addition of substance
Excerpt: Various types of cancer are characterized by uncontrolled, excessive proliferation of various cell types, leading to the development of metastases and tumors. The possible use of the substances according to the invention for the treatment of hyperproliferative disorders can be investigated by their activity on the cell division rate of tumor cells in vitro. The indicator between antiproliferative effect in vitro and clinical antitumor effect is well established. The therapeutic utilizability of, for example, Taxol [Silvestrini et al., Stem Cells 11, 528-535 (1993)], Taxotere [Bissery et al., Anti Cancer Drugs 6, 339 (1995)] or topoisomerase inhibitors [Edelman et al., Cancer Chemother.
The tumor cell lines such as, for example, MDA-MB-231 cells (human breast adenocarcinoma cells), H460 cells (human lung carcinoma cells) or HCT-15 cells (human colon adenocarcinoma cells) are expanded in appropriate growth media (Sigma, Taufkirchen, Germany) recommended by the supplier (e.g. LGC Promochem, Wesel, Germany). One day before adding the compounds according to the invention, the cells are distributed in a density of 3000 cells/well in 100 μl of growth medium on black 96-well microtiter plates with clear base. On the day of addition of test substance, one microtiter plate for each tumor cell line is used to determine the initial cell count present in the wells. The substances according to the invention, diluted in growth medium and DMSO, are added to the related plates. The test substances are usually added in various concentrations starting with 10 μM final concentration in the assay. The DMSO concentration in the assay is 0.1%. Twenty-four hours after addition of the substance, the cell counts in each well are determined using the CellTiter-Glo® Luminescent Cell Viability-Tests (Promega GmbH, Mannheim, Germany). The test is carried out in accordance with the manufacturer's instructions and evaluated using a luminometer. To ascertain the antiproliferative activity of the compounds according to the invention, the cell counts determined before addition of substance in related plates are subtracted, and the percentage difference of the changes in the cell counts between substance-treated and vehicle-treated cells is determined. The relative activity of the different test substances is determined by a comparison of the concentrations which bring about 50% of their maximum effect (IC50).

[1] = Metabolic stability: in vitro incubation with liver microsomes; type: in vitro ADME; details: Mouse liver microsomes; for CL: calculated from half-life in the incubation mixture; for Fmax: maximum bioavailability calculated from half-life in the incubation mixture
Description: In Vitro Incubation with Liver Microsomes:
The hepatic microsomal stability is determined by incubating the substances according to the invention with liver microsomes from various species. The incubation concentration of the substances is kept as low as possible (preferably <1 μM), as is the concentration of the microsomal proteins in the test mixture (preferably 0.2 mg of microsomal protein per ml of incubation mixture). This procedure makes it possible to operate in the linear region of the Michaelis-Menten kinetics for most compounds. A sample is taken from the incubation mixture at various times (seven times in total) to determine the remaining substance concentration. The clearance (CL) and the maximum bioavailability (Fmax) of the test substance is calculated for the respective species from the half-life of the substance in the incubation mixture.
The experiments are carried out as described in detail in J. B. Houston and D. J. Carlile [Drug Metab. Rev. 29, 891-922 (1997)].

[2] = tested on: Interleukin-8 (IL-8) release from human endothelial cells; assay: Inhibition of interleukin-8 (IL-8) release from human endothelial cells (HUVEC), IL-1β induced, ELISA; type: cell-based; details: IL-1β 10 ng/ml, 6 h, IL-8 by ELISA, read-out: IC50 (50% inhibition of IL-8 release relative to the maximum effect)
Excerpt: 1.a) Inhibition of Interleukin-8 (IL-8) Release from Human Endothelial Cells
The expression of the human IL-8 gene is controlled by a diversity of regulatory and enhancer elements which are located above the promoter region of the gene. These elements comprise binding sites for transcription factors, and efficient transcription of the IL-8 gene is possible only through the interaction thereof with their DNA binding sites. The activity of the corresponding transcription factors can be induced by various stimuli (e.g. interleukin-1β, tumor necrosis factor-α) and can be modulated by various signal transduction pathways [H. Holtmann et al., Mol. Cell. Biol. 19, 6742-6753 (1999)].
For maximum expression of IL-8, the activity of two different transcription factors is essential: NF-κB and AP-1 [Y.-H. Chang et al., Exp. Cell Res. 278, 166-174 (2000)]. Cytokine-induced IL-8 synthesis can therefore be employed as test system for identifying and characterizing test substances which inhibit directly or indirectly the binding of NF-κB and AP-1 to their DNA binding sites.
Human umbilical cord endothelial cells (HUVEC) were purchased from CellSystems (St. Katharinen, Germany) and cultured in accordance with the supplier's recommendation in EGM-2 medium including growth additions (CellSystems, St. Katharinen, Germany) in 165 cm^2 tissue culture bottles. After the cell lawn has reached 60-80% confluence, the cells are detached from the base of the bottle by trypsin treatment, mechanically dissociated and seeded in a cell density of 5000 cells/well in 96-well microtiter plates (Corning, Wiesbaden, Germany). After 3 days, the culture medium is completely replaced by 170 μl of fresh medium per well. The cells are employed for the experiments on the following day.
To determine the inhibitory effect of the substances according to the invention on IL-8 release, they are firstly dissolved in a concentration ten times higher than the desired final concentration in the test in medium which comprises 1% DMSO. Subsequently, 20 μl of the substance solution are added per well. The formation and release of IL-8 is then induced by adding interleukin-1β (IL-1β, final concentration 10 ng/ml; Biosource GmbH, Solingen, Germany), and the cells are incubated in a CO2 incubator at 37° C. for 6 h. Thereafter, 150 μl of the cell supernatant are removed and frozen at −20° C. until the IL-8 content is measured by ELISA (Biosource GmbH, Solingen, Germany). To carry out the ELISA, the samples are thawed and are diluted 1:10, and the test is carried out in accordance with the manufacturer's instructions. The inhibitory effect of the compounds according to the invention on IL-8 release is ascertained by comparison with vehicle-treated cells.

CL [1] [mL/min/kg] | Fmax [1] [%] | pIC50 [2] | Compound | pIC50 (H460 cells)
<45 | >50 | 6.67 | O[C@H]1C[C@@H](c2ccccc2)[C@]2(c3ccc(Cl)cc3)Oc3cccc(OCCN4CCCC4)c3[C@]12O (racemic) [Example 48, (1S*,3S*,3aR*,8bS*)-3a-(4-Chlorophenyl)-3-phenyl-8-(2-pyrrolidin-1-ylethoxy)-2,3,3a,8b-tetrahydrocyclopenta[b]benzofuran-1,8b-(1H)-diol] | 7.32
<45 | >50 | 6.78 | CCOc1cc(OCC)c2c(c1)O[C@@]1(c3ccc(Cl)cc3)[C@H](c3ccccc3)C[C@@H](N)[C@@]21O (racemic) [Example 15, (1R*,3S*,3aR*,8bS*)-1-Amino-3a-(4-chlorophenyl)-6,8-diethoxy-8b-hydroxy-3-phenyl-2,3,3a,8b-tetrahydrocyclopenta[b]benzofuran] | –
<45 | >50 | 7.70 | COCCOc1cc(OCCOC)c2c(c1)O[C@@]1(c3ccc(Br)cc3)[C@H](c3ccccc3)C[C@@H](O)[C@@]21O (relative stereo) [Example 18, (1R*,3S*,3aR*,8bS*)-6,8-Bis(2-methoxyethoxy)-3a-(4-bromophenyl)-3-phenyl-2,3,3a,8b-tetrahydrocyclopenta[b]benzofuran-1,8b-(1H)-diol] | –
<45 | >50 | 6.95 | CN(C)CCOc1ccc2c(c1)O[C@@]1(c3ccc(Cl)cc3)[C@H](c3ccccc3)C[C@H](O)[C@@]21O (racemic) [Example 32, (1S*,3S*,3aR*,8bS*)-3a-(4-Chlorophenyl)-6-(2-dimethylaminoethoxy)-3-phenyl-2,3,3a,8b-tetrahydrocyclopenta[b]benzofuran-1,8b-(1H)-diol] | 9.30
<45 | >50 | 6.77 | CCOc1cc(OCC)c2c(c1)O[C@@]1(c3ccc(-c4ccsc4)cc3)[C@H](c3ccccc3)C[C@@H](O)[C@@]21O (relative stereo) [Example 3, (1R*,3S*,3aR*,8bS*)-6,8-Diethoxy-3-phenyl-2,3,3a,8b-tetrahydro-3a-(4-thiophen-3-ylphenyl)-cyclopenta[b]benzofuran-1,8b-(1H)-diol] | –

The remaining lines, values behind:

Compound | CL [1] [mL/min/kg] | Fmax [1] [%] | pIC50 [2] | pIC50 (H460 cells)
CN(C)CCOc1cccc2c1[C@]1(O)[C@@H](O)C[C@@H](c3ccccc3)[C@]1(c1ccc(Cl)cc1)O2 (relative stereo) [Example 49, (1S*,3S*,3aR*,8bS*)-3a-(4-Chlorophenyl)-8-(2-dimethylaminoethoxy)-3-phenyl-2,3,3a,8b-tetrahydrocyclopenta[b]benzofuran-1,8b-(1H)-diol] | – | – | – | 7.53
CN(C)CCOc1cc(OCCN(C)C)c2c(c1)O[C@@]1(c3ccc(Cl)cc3)[C@H](c3ccccc3)C[C@@H](O)[C@@]21O (relative stereo) [Example 21, (1R*,3S*,3aR*,8bS*)-6,8-Bis(2-dimethylaminoethoxy)-3a-(4-chlorophenyl)-3-phenyl-2,3,3a,8b-tetrahydrocyclopenta[b]benzofuran-1,8b-(1H)-diol] | – | – | – | 8.82
CN(C)CCOc1cc(OCCN(C)C)c2c(c1)O[C@@]1(c3ccc(Br)cc3)[C@H](c3ccccc3)C[C@H](O)[C@@]21O (relative stereo) [Example 22, (1S*,3S*,3aR*,8bS*)-6,8-Bis(2-dimethylaminoethoxy)-3a-(4-bromophenyl)-3-phenyl-2,3,3a,8b-tetrahydrocyclopenta[b]benzofuran-1,8b-(1H)-diol] | <45 | >50 | 7.05 | –
CCOc1cc(OCC)c2c(c1)O[C@@]1(c3ccc(Br)cc3)[C@H](c3ccccc3)[C@@H](C(=O)N(C)C)C(=O)[C@@]21O (relative stereo) [Example 12, (2R*,3S*,3aR*,8bR*)-3a-(4-Bromophenyl)-6,8-diethoxy-2-dimethylcarbamid-8b-hydroxy-3-phenyl-2,3,3a,8b-tetrahydrocyclopenta[b]benzofuran-1-one] | 49.5 | 45.1 | 6.33 | –
CCOc1ccc2c(c1)O[C@@]1(c3ccc(Cl)cc3)[C@H](c3ccccc3)C[C@H](O)[C@@]21O (relative stereo) [Example 23, (1S*,3S*,3aR*,8bS*)-3a-(4-Chlorophenyl)-6-ethoxy-3-phenyl-2,3,3a,8b-tetrahydrocyclopenta[b]-benzofuran-1,8b-(1H)-diol] | – | – | 6.69 | 7.00
